Data reported in patent US20240336622A1 (The Board of Regents of The University of Texas System, priority 2021, published 2024).

tested on: UWB1 cells; test: cells; conditions: read-out: IC50 (μM) UWB1 cells

| Compound | IC50 [µM] |
| --- | --- |
| COC(=O)C[C@H]1[C@]2(C)C3=C(C)[C@@H](c4ccc(O[Si](C)(C)C(C)(C)C)cc4)C[C@H]3O[C@@H]2[C@@H]2OC(=O)[C@]3(C)C=CC(=O)[C@@]1(C)[C@@H]23 (stereo in doubt) [S-120] | 0.165 |
| C=C1[C@H](O[Si](C)(C)C)[C@H](O[Si](C)(C)C)[C@@H]2[C@](C)(C(=O)C=C[C@@]2(C)C(=O)OC)[C@H]1CC(=O)OC [S-16-a] | > 10 |
| C=C1[C@H](O[C@H]2C[C@@H](c3ccoc3)C(C)=C2I)[C@@H]2OC(=O)[C@]3(C)C=CC(=O)[C@@](C)([C@@H]23)[C@H]1CC(=O)OC [S-27] | 0.415 |
| CC[Si](CC)(CC)O[C@H]1C(=O)[C@H](CC(=O)OC)[C@@]2(C)C=CC(=O)[C@@]3(C)C(=O)O[C@@H]1[C@@H]32 [S-38] | > 10 |
| COC(=O)C[C@H]1[C@@H]2CC3=C(C)CC[C@@H]3O[C@@H]2[C@@H]2OC(=O)[C@]3(C)C=CC(=O)[C@@]1(C)[C@@H]23 [S-98] | 0.83 |
| COC(=O)C[C@H]1[C@]2(C)C3=C(C)[C@H](c4cccc(O[Si](C)(C)C(C)(C)C)c4)C[C@H]3O[C@@H]2[C@@H]2OC(=O)[C@]3(C)C=CC(=O)[C@@]1(C)[C@@H]23 [S-112] | 0.219 |
| COC(=O)C[C@H]1[C@@H]2CC3=C(C)[C@H](c4cccc(O[Si](C)(C)C(C)(C)C)c4)C[C@@H]3O[C@@H]2[C@@H]2OC(=O)[C@]3(C)C=CC(=O)[C@@]1(C)[C@@H]23 [S-113] | 0.216 |
| COC(=O)C[C@H]1[C@]2(C)C3=C(C)[C@@H](c4cccc(O[Si](C)(C)C(C)(C)C)c4)C[C@H]3O[C@@H]2[C@@H]2OC(=O)[C@]3(C)C=CC(=O)[C@@]1(C)[C@@H]23 [S-114] | 0.242 |
| COC(=O)C[C@H]1[C@@H]2CC3=C(C)[C@@H](c4cccc(O[Si](C)(C)C(C)(C)C)c4)C[C@H]3O[C@@H]2[C@@H]2OC(=O)[C@]3(C)C=CC(=O)[C@@]1(C)[C@@H]23 [S-115] | 0.196 |
| COC(=O)C[C@H]1[C@@H]2CC3=C(C)[C@@H](c4cccc(O[Si](C)(C)C(C)(C)C)c4)C[C@@H]3O[C@@H]2[C@@H]2OC(=O)[C@]3(C)C=CC(=O)[C@@]1(C)[C@@H]23 [S-116] | 0.15 |

same assay, conditions: read-out: IC50 (μM) UWB1 cells, UWB1 cell viability

| Compound | IC50 [µM] |
| --- | --- |
| C=C1[C@H](O)[C@H](O)[C@@H]2[C@](C)(C(=O)C=C[C@@]2(C)C(=O)OC)[C@H]1CC(=O)OC [S-16-b] | > 10 |
| C=C1[C@H](O)[C@@H]2OC(=O)[C@]3(C)C=CC(=O)[C@@](C)([C@@H]23)[C@H]1CC(=O)OC [S-16] | > 10 |
| C=C1[C@H](O[C@H]2C=C(C)[C@H](c3ccoc3)C2)[C@@H]2OC(=O)[C@]3(C)C=CC(=O)[C@@](C)([C@@H]23)[C@H]1CC(=O)OC [S-26-1] | 0.265 |
| COC(=O)C[C@H]1[C@]2(C)C3=C(C)[C@H](c4ccoc4Br)C[C@H]3O[C@@H]2[C@@H]2OC(=O)[C@]3(C)C=CC(=O)[C@@]1(C)[C@@H]23 [S-41] | 0.465 |
| COC(=O)C[C@H]1[C@]2(C)C3=C(C)[C@H](c4ccoc4-c4cccc5c4ccn5C)C[C@H]3O[C@@H]2[C@@H]2OC(=O)[C@]3(C)C=CC(=O)[C@@]1(C)[C@@H]23 [S-42] | 0.144 |
| COC(=O)C[C@H]1[C@]2(C)C3=C(C)[C@H](c4ccoc4-c4ccc(OC)nc4)C[C@H]3O[C@@H]2[C@@H]2OC(=O)[C@]3(C)C=CC(=O)[C@@]1(C)[C@@H]23 [S-43] | 0.208 |
| COC(=O)C[C@H]1[C@]2(C)C3=C(C)[C@H](c4ccoc4-c4ccc5c(c4)OCO5)C[C@H]3O[C@@H]2[C@@H]2OC(=O)[C@]3(C)C=CC(=O)[C@@]1(C)[C@@H]23 [S-44] | 0.383 |
| COC(=O)C[C@H]1[C@]2(C)C3=C(C)[C@H](c4ccoc4-c4ccc(C=O)cc4)C[C@H]3O[C@@H]2[C@@H]2OC(=O)[C@]3(C)C=CC(=O)[C@@]1(C)[C@@H]23 [S-45] | 0.251 |
| COC(=O)C[C@H]1[C@]2(C)C3=C(C)[C@H](c4ccoc4-c4ccoc4)C[C@H]3O[C@@H]2[C@@H]2OC(=O)[C@]3(C)C=CC(=O)[C@@]1(C)[C@@H]23 [S-47] | 0.296 |
| COC(=O)C[C@H]1[C@]2(C)C3=C(C)[C@H](c4ccoc4-c4ccc(OC)cc4C)C[C@H]3O[C@@H]2[C@@H]2OC(=O)[C@]3(C)C=CC(=O)[C@@]1(C)[C@@H]23 [S-48] | 0.212 |
| COC(=O)C[C@H]1[C@]2(C)C3=C(C)[C@H](c4ccoc4-c4ccc([N+](=O)[O-])cc4)C[C@H]3O[C@@H]2[C@@H]2OC(=O)[C@]3(C)C=CC(=O)[C@@]1(C)[C@@H]23 [S-49] | 0.194 |
| COC(=O)C[C@H]1[C@]2(C)C3=C(C)[C@H](C4=CC(=O)OC4OC(C)=O)C[C@H]3O[C@@H]2[C@@H]2OC(=O)[C@]3(C)C=CC(=O)[C@@]1(C)[C@@H]23 (stereo partly shown) [S-50] | 1.04 |
| COC(=O)C[C@H]1[C@]2(C)C3=C(C)[C@H](c4ccoc4-c4ccc(C(=O)NC(C)(C)C)cc4)C[C@H]3O[C@@H]2[C@@H]2OC(=O)[C@]3(C)C=CC(=O)[C@@]1(C)[C@@H]23 [S-52] | 0.199 |
| CCC(C)NC(=O)c1ccc(-c2occc2[C@@H]2C[C@H]3O[C@@H]4[C@@H]5OC(=O)[C@]6(C)C=CC(=O)[C@](C)([C@@H](CC(=O)OC)[C@]4(C)C3=C2C)[C@@H]56)cc1 (stereo partly shown) [S-53] | 0.17 |
| C=C1[C@H](O[C@H]2C=C(C)[C@H](c3ccoc3)C2)[C@@H]2OC(=O)[C@]3(C)C=CC(=O)[C@@](C)([C@@H]23)[C@H]1CC(=O)OC [S-54] | 0.265 |
| COC(=O)C[C@H]1[C@]2(C)C3=C(C)[C@H](c4ccoc4)C[C@H]3O[C@@H]2[C@@H]2OC(=O)[C@]3(C)C=C[C@@H](O)[C@@]1(C)[C@@H]23 [S-55] | > 10 |
| COC(=O)C[C@H]1[C@]2(C)C3=C(C)[C@H](c4ccoc4-c4ccccc4OC)C[C@H]3O[C@@H]2[C@H](O)[C@H]2C(C)=CCC(=O)[C@]12C [S-56] | > 10 |
| COC(=O)C[C@H]1[C@@H]2CC3=C(C)[C@H](c4ccoc4)C[C@@H]3O[C@@H]2[C@@H]2OC(=O)[C@]3(C)C=CC(=O)[C@@]1(C)[C@@H]23 [S-57] | 0.591 |
| COC(=O)C[C@H]1[C@]2(C)C3=C(C)[C@H](c4ccoc4-c4ccc(C(=O)O)cc4)C[C@H]3O[C@@H]2[C@@H]2OC(=O)[C@]3(C)C=CC(=O)[C@@]1(C)[C@@H]23 [S-58] | 1.79 |
| COC(=O)C[C@H]1[C@]2(C)C3=C(C)[C@H](c4ccoc4-c4ccc(C(=O)OC)cc4)C[C@H]3O[C@@H]2[C@@H]2OC(=O)[C@]3(C)C=CC(=O)[C@@]1(C)[C@@H]23 [S-59] | 0.203 |

| Compound | IC50 [µM] |
| --- | --- |
| COC(=O)C[C@H]1[C@]2(C)C3=C(C)[C@H](c4ccoc4)C[C@H]3O[C@@H]2[C@@H]2OC(=O)[C@]3(C)CCC(=O)[C@@]1(C)[C@@H]23 [S-60, 2,3-dihydronimbolide] | > 10 |
| COC(=O)C[C@H]1[C@]2(C)C3=C(C)[C@H](c4ccoc4)C[C@H]3O[C@@H]2[C@H](O)[C@H]2C(C)=CCC(=O)[C@]12C [S-61, 6-deacetylnimbinene] | > 10 |
| COC(=O)C[C@H]1[C@]2(C)C3=C(C)[C@H](c4ccoc4)C[C@H]3O[C@@H]2[C@H](OC(C)=O)[C@H]2C(C)=CCC(=O)[C@]12C [S-62, nimbinene] | > 10 |
| COC(=O)C[C@H]1[C@]2(C)C3=C(C)[C@H](c4ccoc4)C[C@H]3O[C@@H]2[C@H](O)[C@@H]2[C@]1(C)C(=O)C=C[C@@]2(C)C(=O)OC [S-63, 6-deacetylnimbin] | > 10 |
| COC(=O)C[C@H]1[C@]2(C)C3=C(C)[C@H](c4ccoc4)C[C@H]3O[C@@H]2[C@H](OC(C)=O)[C@@H]2[C@]1(C)C(=O)C=C[C@@]2(C)C(=O)OC [S-64, nimbin] | > 10 |
| COC(=O)C[C@@H]1[C@@]2(C)C(=O)C=C[C@@]3(C)C(=O)O[C@@H]([C@H]4O[C@H]5CC(c6ccoc6)=C(C)[C@]56C[C@@]416)[C@H]23 [S-65] | > 10 |
| COC(=O)C[C@H]1[C@]2(C)C3=C(C)CC[C@H]3O[C@@H]2[C@@H]2OC(=O)[C@]3(C)C=CC(=O)[C@@]1(C)[C@@H]23 [S-97] | 1.45 |
| COC(=O)C[C@H]1[C@@H]2CC3=C(C)[C@@H](c4ccoc4)C[C@@H]3O[C@@H]2[C@@H]2OC(=O)[C@]3(C)C=CC(=O)[C@@]1(C)[C@@H]23 [S-99] | 0.88 |
| COC(=O)C[C@H]1[C@]2(C)C3=C(C)[C@H](c4ccccc4)C[C@H]3O[C@@H]2[C@@H]2OC(=O)[C@]3(C)C=CC(=O)[C@@]1(C)[C@@H]23 [S-101] | 0.3 |
| COC(=O)C[C@H]1[C@@H]2CC3=C(C)[C@H](c4ccccc4)C[C@@H]3O[C@@H]2[C@@H]2OC(=O)[C@]3(C)C=CC(=O)[C@@]1(C)[C@@H]23 [S-102] | 0.17 |
| COC(=O)C[C@H]1[C@@H]2CC3=C(C)[C@@H](c4ccccc4)C[C@@H]3O[C@@H]2[C@@H]2OC(=O)[C@]3(C)C=CC(=O)[C@@]1(C)[C@@H]23 [S-103] | 0.16 |
| COC(=O)C[C@H]1[C@]2(C)C3=C(C)[C@H](C4CCCCC4)C[C@H]3O[C@@H]2[C@@H]2OC(=O)[C@]3(C)C=CC(=O)[C@@]1(C)[C@@H]23 [S-104] | 0.21 |
| COC(=O)C[C@H]1[C@@H]2CC3=C(C)[C@H](C4CCCCC4)C[C@@H]3O[C@@H]2[C@@H]2OC(=O)[C@]3(C)C=CC(=O)[C@@]1(C)[C@@H]23 [S-105] | 0.2 |
| COC(=O)C[C@H]1[C@@H]2CC3=C(C)[C@@H](C4CCCCC4)C[C@@H]3O[C@@H]2[C@@H]2OC(=O)[C@]3(C)C=CC(=O)[C@@]1(C)[C@@H]23 [S-106] | 0.16 |
| COC(=O)C[C@H]1[C@]2(C)C3=C(C)[C@H](c4ccc(OC)cc4)C[C@H]3O[C@@H]2[C@@H]2OC(=O)[C@]3(C)C=CC(=O)[C@@]1(C)[C@@H]23 [S-107] | 0.27 |
| COC(=O)C[C@H]1[C@@H]2CC3=C(C)[C@H](c4ccc(OC)cc4)C[C@@H]3O[C@@H]2[C@@H]2OC(=O)[C@]3(C)C=CC(=O)[C@@]1(C)[C@@H]23 [S-108] | 0.11 |
| COC(=O)C[C@H]1[C@@H]2CC3=C(C)[C@@H](c4ccc(OC)cc4)C[C@@H]3O[C@@H]2[C@@H]2OC(=O)[C@]3(C)C=CC(=O)[C@@]1(C)[C@@H]23 [S-109] | 0.17 |
| C=C1[C@H](O[C@H]2CCC(C(C)C)=C2I)[C@@H]2OC(=O)[C@]3(C)C=CC(=O)[C@@](C)([C@@H]23)[C@H]1CC(=O)OC [S-111] | 0.255 |
| C#CCOC(=O)c1ccc(-c2occc2[C@@H]2C[C@H]3O[C@@H]4[C@@H]5OC(=O)[C@]6(C)C=CC(=O)[C@](C)([C@@H](CC(=O)OC)[C@]4(C)C3=C2C)[C@@H]56)cc1 [S-112a] | 0.198 |
